Source: publication PMC10633902, “Investigating the antimicrobial activity, cytotoxicity, and action mechanism of acylated and amidated derivatives of AurH1 antifungal peptide” (BMC Microbiology, 2023)
≈ marks a conversion by molar mass, not a printed value. Like-named read-outs stand apart in the source and are kept apart here. No end group written: not given here.

Experiments:
[1] = test system: Aspergillus flavus (ATCC 24,109); test: microbe, parasite or virus in culture; assay type: cell-based
Procedure: (§1) The human skin fibroblast (Hu02 cell) and human breast cancer cells (MDA-MB-231 and SKBR-3 cell lines) were purchased from the National Cell Bank of Iran, Pasture Institute of Ira) for cytotoxicity test. Antimicrobial effects of the Ac-AurH1, AurH1-NH2, and AurH1 against the selected bacteria and fungi were conducted using a standard serial dilution method in a 96-well microplate. For this purpose, the desired fungal and bacterial strains were grown overnight at 37 °C (Some of the fungi were incubated at 25 °C) in related media (SDA for fungi and MHA for bacteria). […] Next, serially diluted synthetic peptides in a volume of 100 μL were added to the microtitre plates, followed by 100 μL of bacteria and fungi to give a final inoculum of 5 × 10^5 colony-forming units (CFU)/ml (a 0.5 McFarland standard inoculum). […] In this test, penicillin and streptomycin antibiotics for bacteria and fluconazole, nystatin, and amphotericin B for fungal strains were used as antibiotic control. […] All tests were repeated three times independently.

[2] = test system: Aspergillus niger (ATCC 9142); test: microbe, parasite or virus in culture; assay type: cell-based
Procedure: as §1

[3] = test system: Candida albicans (ATCC 10,231); test: microbe, parasite or virus in culture; assay type: cell-based
Procedure: as §1

[4] = test system: Candida glabrata (ATCC 90,030); test: microbe, parasite or virus in culture; assay type: cell-based
Procedure: as §1

[5] = test system: Candida krusei (ATCC 28,870); test: microbe, parasite or virus in culture; assay type: cell-based
Procedure: as §1

C. albicans [6] = test: Killing kinetic assay (time of killing); assay type: cell-based, Candida albicans; conditions: 1X MIC concentration
[7] = test system: Escherichia coli (ATCC 25,922); test: microbe, parasite or virus in culture; assay type: cell-based
Procedure: as §1

[8] = test system: Staphylococcus aureus (ATCC 25,923); test: microbe, parasite or virus in culture; assay type: cell-based
Procedure: as §1

[9] = test system: Human skin fibroblast (Hu02 cells); assay type: cell-based
Procedure: Toxicity of peptides on Human skin fibroblast (Hu02 cells) and two human breast cancer cell lines (MDA-MB-231 and SKBR3 cell lines) measured by an MTT assay. At first, cell lines with a density of 1 × 10^5 cells were cultured in the wells of 96-well plates for 24 h under standard conditions (37 °C temperature, 5% CO2 atmosphere with 95% relative humidity). After that, the old medium was replaced with fresh medium (with 10% FBS) containing different peptide concentrations, and the cells were incubated for 24 h. A medium without peptide was used as a negative control. After 24 h of incubation and washing the wells with PBS, the medium (containing 10% FBS) was replaced with fresh medium containing 10% MTT solution (freshly prepared 5 mg/ml MTT in PBS), and the plate was incubated for four h in 5% CO2, at 37 °C. Next, the medium was removed from the wells, and 100 µL DMSO was added. Afterward, the plate was shaken to dissolve Formazan crystals. Finally, by a microplate reader (STAT FAX 2100, BioTek, Winooski, USA), the absorbance values were measured at a wavelength of 595 nm. The percentage of toxicity was calculated as follows: […]

human red blood cells = assay type: cell-based; conditions: 1 h
Procedure: A hemolytic assay was performed to investigate the effects of peptides on human red blood cells. First, 5 ml of fresh human blood was taken from a volunteer. After that, 20% (v/v) suspension of human erythrocytes was prepared and diluted in PBS (1:20). Next, 100 µL of this blood suspension was added in triplicate to 100 µL of a 2-fold serial dilution series of the peptide in a 96‐well plate. 1% Triton-X 100 was used as a positive control to lyse 100% of RBCs, and sterile 0.9% NaCl solution was used as a negative control. Then the plates were incubated at 37 °C for 1 h and centrifuged at 3500 rpm for 10 min. Next, 100 µL of the supernatant was transferred to a new 96-well plate to measure the absorbance at 414 nm using a microplate reader (STAT FAX 2100, BioTek, Winooski, USA). Finally, the percentage of hemolysis was calculated as follows: […]

C. albicans [10] = assay type: cell-based, Candida albicans
Procedure: (§2) The microbial inoculum was prepared based on broth micro-dilution assay to generate a concentration of fungi corresponding to 5 × 10^5 CFU/mL. […] The obtained results were analyzed in terms of the fractional inhibitory concentration index (FIC): [drawing 4] AMPs and antibiotics are antagonistic if FIC ≥ 4.0, indifference if > 1 FIC < 4.0, additive if > 0.5 FIC ≤ 1, and synergism if FIC ≤ 0.5.

C. glabrata = assay type: cell-based, Candida glabrata
Procedure: as §2

C. krusei = assay type: cell-based, Candida krusei
Procedure: as §2

C. albicans [11] = test: Ergosterol binding assay (MIC in presence and absence of ergosterol); assay type: cell-based, Candida albicans
Procedure: An ergosterol binding assay was performed to measure the binding potency of peptides to fungal membrane sterols. For this purpose, the ergosterol was dissolved in DMSO and Tween-20, it was heated to increase the solubility of the formed emulsion and diluted in an SDB medium at a concentration of […] and incubated at 37 °C for 1 h. After that, MIC of the AurH1, Ac-AurH1, and AurH1-NH2 peptides was measured by the micro-dilution method in the presence and absence of ergosterol in different concentrations ([…]) against C. albicans.

C. albicans [12] = test: Effect of salts and human serum on antimicrobial activity (MIC); assay type: cell-based, Candida albicans
Procedure: To evaluate the effect of salts and human serum on the antimicrobial activity of the AurH1-NH2 and AurH1 peptides, their antimicrobial activity (MICs values) against C. albicans under different conditions containing salt and human serum was determined. Therefore, mid-logarithmic phase yeasts diluted to 5 × 10^5 CFU/ml in SDB were added to related media containing different concentrations of human serum (10%, 20%, and 30%) and salts (150 mM NaCl and 1mM MgCl2), and incubated at 37 °C for 24 h.

C. albicans [13] = test: FE-SEM of C. albicans surface after peptide treatment; assay type: cell-based, Candida albicans; conditions: 0.5 X MIC
Procedure: At first, C. albicans were cultured in broth media. Next, yeasts were deposited by centrifugation (4000 rpm for 1 min) and washed (Three times) with PBS (pH 7.4). […] The samples were centrifuged at 4000 rpm for 1 min, washed three times in PBS, and put on the glass slides (1cm2). Subsequently, cells were dehydrated with ethanol gradient (at 10, 30, 60, 70, and 90%). After that, the dehydrated cells were dissolved in 100% ethanol for 15 min and dried at room temperature (25 °C). Finally, C. albicans cells were coated with gold nanoparticles by an automatic sputter coater and observed using an FE-SEM instrument (JSM-7610 F, JEOL Co., Japan and MIRA3, TESCAN Co., Czech).

[14] = A. flavus, mean of 3 independent tests
[15] = A. niger, mean of 3 independent tests
[16] = C. albicans, mean of 3 independent tests
[17] = C. glabrata, mean of 3 independent tests
[18] = C. krusei, mean of 3 independent tests
[19] = in combination with amphotericin B (Amph)
[20] = in combination with fluconazole (Flu)
[21] = in combination with nystatin (Nys)

OC(Cn1cncn1)(Cn1cncn1)c1ccc(F)cc1F [Flu, Fluconazole, reference compound]
MIC ([1]; Aspergillus flavus, ATCC24, A. flavus, mean of 3 independent tests, read-out: MIC): > 1000 µg/mL
MBC ([2]; Aspergillus niger, ATCC9142, A. niger, mean of 3 independent tests): > 1000 µg/mL
MIC ([2]; Aspergillus niger, ATCC9142, A. niger, mean of 3 independent tests, read-out: MIC): 500 µg/mL (≈ 1630 µM)
MBC ([3]; Candida albicans, ATCC10, C. albicans, mean of 3 independent tests): 500 µg/mL (≈ 1630 µM)
MIC ([3]; Candida albicans, ATCC10, C. albicans, mean of 3 independent tests, read-out: MIC): 62.5 µg/mL (≈ 204 µM)
MBC ([4]; Nakaseomyces glabratus, ATCC90, C. glabrata, mean of 3 independent tests): 500 µg/mL (≈ 1630 µM)
MIC ([4]; Nakaseomyces glabratus, ATCC90, C. glabrata, mean of 3 independent tests, read-out: MIC): 125 µg/mL (≈ 408 µM)
MBC ([5]; Pichia kudriavzevii, ATCC28, C. krusei, mean of 3 independent tests): 250 µg/mL (≈ 816 µM)
MIC ([5]; Pichia kudriavzevii, ATCC28, C. krusei, mean of 3 independent tests, read-out: MIC): 62.5 µg/mL (≈ 204 µM)
time to kill all C. albicans (maximum fungicidal effect) (C. albicans [6]): could not eliminate C. albicans after 24 h

C[C@@H]1[C@H](O)[C@@H](C)/C=C/C=C/CC/C=C/C=C/C=C/C=C/C(O[C@H]2O[C@H](C)[C@@H](O)[C@H](N)[C@@H]2O)CC2O[C@](O)(CC(O)C(O)CCC(O)CC(O)CC(O)CC(=O)O[C@H]1C)CC(O)C2C(=O)O (some centres unmarked) [Nys, Nystatin, reference compound]
MBC (MFC) [1, 14]: 62.50 µg/mL (≈ 67.5 µM)
MIC [1, 14]: 7.81 µg/mL (≈ 8.43 µM)
MBC (MFC) [2, 15]: 125 µg/mL (≈ 135 µM)
MIC [2, 15]: 31.25 µg/mL (≈ 33.7 µM)
MBC (MFC) [3, 16]: 3.90 µg/mL (≈ 4.21 µM)
MIC [3, 16]: 1.95 µg/mL (≈ 2.11 µM)
MBC (MFC) [4, 17]: 3.9 µg/mL (≈ 4.21 µM)
MIC [4, 17]: 3.9 µg/mL (≈ 4.21 µM)
MBC (MFC) [5, 18]: 3.90 µg/mL (≈ 4.21 µM)
MIC [5, 18]: 1.95 µg/mL (≈ 2.11 µM)
time to kill all C. albicans (maximum fungicidal effect) (C. albicans [6]): 8 h

[H]/N=C(/N)N[C@H]1[C@H](O)[C@@H](O)[C@H](O[C@@H]2O[C@@H](C)[C@](O)(C=O)[C@H]2O[C@@H]2O[C@@H](CO)[C@H](O)[C@@H](O)[C@@H]2NC)[C@@H](N/C(N)=N\[H])[C@@H]1O [Strep, Streptomycin, reference compound]
MIC ([7]; Escherichia coli, ATCC25, E. coli, mean of 3 independent tests, read-out: MIC): 3.9 µg/mL (≈ 6.71 µM)
MIC ([8]; Staphylococcus aureus, ATCC25, S. aureus, mean of 3 independent tests, read-out: MIC): 62.5 µg/mL (≈ 107 µM)

Ac-WFKIIKK [Ac-AurH1, Ac-WFKIIKK]
MIC ([1]; ATCC 24, 24 h): > 1000 µg/mL
MIC ([2]; ATCC 9142, 24 h): > 1000 µg/mL
MBC (MFC) ([3]; ATCC 10, 24 h): > 1000 µg/mL
MIC ([3]; ATCC 10, 24 h): 250 µg/mL
MIC ([4]; ATCC 90, 24 h): > 1000 µg/mL
MBC (MFC) ([5]; ATCC 28, 24 h): > 1000 µg/mL
MIC ([5]; ATCC 28, 24 h): 500 µg/mL
MIC ([7]; ATCC 25, 24 h): > 1000 µg/mL
MIC ([8]; ATCC 25, 24 h): > 1000 µg/mL
toxicity [9]: more than 10%
HC50 (concentration that lyses 50% of red blood cells) (human red blood cells): 10,127 µg/ml

H-WFKIIKK-NH2 [AurH1-NH2, WFKIIKK-NH2]
MBC (MFC) ([1]; ATCC 24, 24 h): 1000 µg/mL
MIC ([1]; ATCC 24, 24 h): 250 µg/mL
MBC (MFC) ([2]; ATCC 9142, 24 h): 500 µg/mL
MIC ([2]; ATCC 9142, 24 h): 125 µg/mL
MBC (MFC) ([3]; ATCC 10, 24 h): 62.50 µg/mL
MIC ([3]; ATCC 10, 24 h): 7.81 µg/mL
MBC (MFC) ([4]; ATCC 90, 24 h): 62.5 µg/mL
MIC ([4]; ATCC 90, 24 h): 62.5 µg/mL
MBC (MFC) ([5]; ATCC 28, 24 h): 31.25 µg/mL
MIC ([5]; ATCC 28, 24 h): 7.81 µg/mL
MIC ([7]; ATCC 25, 24 h): > 1000 µg/mL
MIC ([8]; ATCC 25, 24 h): > 1000 µg/mL
toxicity [9]: no significant toxicity
HC50 (concentration that lyses 50% of red blood cells) (human red blood cells): 14,246 µg/ml
time to kill all C. albicans (maximum fungicidal effect) (C. albicans [6]): 12 h
Interpretation (C. albicans [10]; [19]): Synergy (synergism if FIC ≤ 0.5)
Interpretation (C. albicans [10]; [20]): Indifference (indifference if > 1 FIC < 4.0)
Interpretation (C. albicans [10]; [21]): Indifference (indifference if > 1 FIC < 4.0)
Interpretation (C. glabrata; [19]): Synergy (synergism if FIC ≤ 0.5)
Interpretation (C. glabrata; [20]): Indifference (indifference if > 1 FIC < 4.0)
Interpretation (C. glabrata; [21]): Antagonist (antagonistic if FIC ≥ 4.0)
Interpretation (C. krusei; [19]): Synergy (synergism if FIC ≤ 0.5)
Interpretation (C. krusei; [20]): Indifference (indifference if > 1 FIC < 4.0)
Interpretation (C. krusei; [21]): Antagonist (antagonistic if FIC ≥ 4.0)
MIC (C. albicans [11]; after treatment with Ergosterol (Erg)): 7.81 µg/mL
MIC (C. albicans [11]; before treatment with Ergosterol (substance alone)): 7.81 µg/mL
MIC (C. albicans [12]; SDB): 7.81 µg/mL
MIC (C. albicans [12]; SDB + 10% serum (human)): 7.81 µg/mL
MIC (C. albicans [12]; SDB + 20% serum (human)): 7.81 µg/mL
MIC (C. albicans [12]; SDB + 30% serum (human)): 15.6 µg/mL
MIC (C. albicans [12]; SDB + MgCl2 (1 mM)): 7.81 µg/mL
MIC (C. albicans [12]; SDB + NaCl (150 mM)): 7.81 µg/mL
surface morphology change (FE-SEM) (C. albicans [13]; after 2 h): shrinkages in cell-surface
surface morphology change (FE-SEM) (C. albicans [13]; after 4 h): increase was seen in the amount of cell surface shrinkage and cell roughening
surface morphology change (FE-SEM) (C. albicans [13]; after 6 h): blisters and surface pores on the cell surface were created

Penicillin [reference compound]
MIC ([7]; E. coli, mean of 3 independent tests): 31.25/NA µg/mL
MIC ([8]; S. aureus, mean of 3 independent tests): 0.45/NA µg/mL
